From publication PMC6459286, “Intestinal TGR5 agonism improves hepatic steatosis and insulin sensitivity in Western diet-fed mice” (American Journal of Physiology - Gastrointestinal and Liver …, 2019) come the findings set out here.

As a reminder, the efflux ratio is a quotient of directional permeabilities that is used to spot active efflux.

Marks after values point to notes of the source that are not given here.

Data set [1] relates to intestinal L-cell hormones (aGLP-1, tGLP-1, tGLP-2, PYY). In words: Secretion of intestinal L-cell hormones in mice fed a standard diet. The format is in vivo, C57BL/6 mice. The conditions noted are these: repeat dosing 4 days, 8 h. As for the experimental part:
Adult male C57BL/6 mice (Taconic) fed standard chow (Harlan Teklad 2018) were dosed orally with vehicle (2% DMSO, 10% HPβCD, 10 mM PBS-HCl) or RDX8940 in separate experiments, as described below. After dosing, mice were anesthetized, and blood was collected via cardiac puncture into K3EDTA-containing tubes (Greiner Bio-one); then, the mice were euthanized. If active GLP-1 (aGLP-1) concentrations were measured, sitagliptin and aprotinin were added to the tubes before blood collection. Blood was processed to plasma for the measurement of incretins; aGLP-1, tGLP-1, and PYY concentrations were assessed using MSD immunoassays (Meso Scale Discovery), whereas total GLP-2 (tGLP-2) concentrations were quantified using a mouse GLP-2 ELISA (ALPCO, Salem, NH).
In the first experiment, mice were administered vehicle or a single dose of RDX8940 (10, 30, or 100 mg/kg), fasted, and plasma tGLP-1 concentrations were measured 8 h after dose. In a second experiment, mice were administered repeated doses of vehicle or RDX8940 30 mg/kg twice daily over 4 days. After the last dose, the mice were fasted and plasma tGLP-1 concentrations were measured 8 h later. […] After the single or last dose, the mice were fasted, and plasma concentrations of aGLP-1, tGLP-1, tGLP-2, and PYY were measured 8, 10, and 12 h later. […]

In data set [2] the test system is C57BL/6 mice fed Western diet. Description: Western diet-fed mice (NAFLD and mild insulin resistance model). The format is in vivo. The conditions noted are these: for 4-h fasted plasma glucose vs vehicle: days 15 and 29, agent alone. As for the experimental part:
Six-week-old male C57BL/6 mice (Taconic) were fed Western diet chow (Harlan Teklad TD.88137, 21.2% fat, 0.2% cholesterol, 42.0% kcal from fat) for 10 wk to model NAFLD and mild insulin resistance. […] An additional vehicle (administered orally twice daily) control group (lean) was fed standard chow (Harlan Teklad 2018) throughout the study (n = 10). […], mice were fasted for 4 h after the first dose, and blood was then collected via the tail vein for measurement of plasma glucose and insulin concentrations using a glucometer (Abbott Animal Health, Abbott Park, IL) and an MSD immunoassay (Meso Scale Discovery), respectively. On day 29, mice were fasted longer (a total of 7–8 h), were anesthetized, and had blood collected via cardiac puncture for the measurement of GLP-1 levels. Mice were then euthanized under anesthesia for the collection of liver tissue. Hepatic triglyceride and cholesterol content were determined at the University of California, Davis, CA, using the Folch method ([17]).

Another data set has as its system gallbladder emptying. Description: Gallbladder emptying in mice. Conditions: CD-1 mice, single oral dose; RDX8940 30 and 100 mg/kg, INT-777 30 mg/kg.
Another data set relates to C57BL/6 mice fed HFCD. Description: GLP-1 and GLP-2 agonists in HFCD-fed mice. It counts as in vivo. The conditions noted are these: for Plasma glucose: 4-h fasted; for Plasma glucose / Plasma total cholesterol / Plasma triglycerides: day 28, means ± SE; for Plasma total bilirubin levels: data not shown; for Body weight: day 33, liraglutide 200 µg/kg or teduglutide 400 µg/kg sc twice daily, means ± SE; for Plasma insulin: day 34, means ± SE; for HFCD-increased hepatic expression of genes involved in inflammation and fibrotic processes: liver RNA sequencing. The procedure: At 19 wk old, mice began treatment. […] Mice were weighed each week. Before treatment and on days 14 and 28 of treatment, the mice were fasted for 4 h, and blood was then collected via the tail vein and processed to plasma for measurement of alanine aminotransferase (ALT), aspartate aminotransferase (AST), alkaline phosphatase (AP), glucose, triglycerides, and total cholesterol using an ACE Axcel clinical analyzer (Alfa Wassermann, West Caldwell, NJ). After 34 days of treatment, the mice were fasted for 6–8 h and were euthanized under anesthesia. Blood was collected and processed to plasma for measurement of insulin [using an MSD immunoassay (Meso Scale Discovery)], and ALT, AST, AP, and total bilirubin levels [using an ACE Axcel clinical analyzer (Alfa Wassermann)]. The entire liver was collected and weighed, and samples of liver were weighed for measurement of triglycerides and total cholesterol levels at University of California, Davis, CA [using the Folch method ([17])]; histological assessments of steatosis, inflammation, and fibrosis were performed using hematoxylin-and-eosin stains, and Sirius red stains (Wax-it Histology Services, Vancouver, BC, Canada and Pacific Tox Path, Ellensburg, WA). Scoring of hepatic pathology was conducted according to descriptions provided by Thoolen et al. ([32]). For gene expression studies, total RNA from mouse liver tissues was isolated using a RNeasy 96 universal tissue kit (Qiagen, Hilden, Germany). A gene expression library was prepared with 100 ng of each RNA sample using a TruSeq Stranded mRNA Library NeoPrep kit (Illumina, Hayward, CA). Library samples were subsequently multiplexed and sequenced using an Illumina NextSeq 500 sequencer (San Diego, CA). Sequences of two 75-base pair ends were obtained for all samples and mapped to the mouse transcriptome, using STAR (Spliced Transcripts Alignment to a Reference) alignment with default parameters (Basespace Cloud, Illumina) and normalized using trimmed mean of M-values method in EdgeR software (Bioconductor; https://www.bioconductor.org/). Differentiation gene expression analysis was evaluated using EdgeR. R platform (https://www.r-project.org/) was used for principal component analysis and heat map analysis. Gene ontology and network correlation analysis were performed using Gorilla (http://cbl-gorilla.cs.technion.ac.il/) and WGNCA (https://horvath.genetics.ucla.edu/html/CoexpressionNetwork/Rpackages/WGCNA/).

A short description of data set [3]: Caco-2 bidirectional permeability assay. The conditions noted are these: human, Caco-2; for recovery: Caco-2, Recovery.
The test system of another data set is MDCK cell monolayers. Description: MDCK bidirectional permeability assay.
The test system of the next data set is Caco-2 cell monolayers. In words: Caco-2 bidirectional permeability assay. In general terms: Caco-2 monolayers are a common model of the intestinal barrier.
Another data set deals with P-gp. Description: MDCK bidirectional permeability assay. The conditions noted are these: dog; for recovery: + verapamil 100 μM.

Regarding `CC#CCn1c(N2CCC[C@@H](N)C2)nc2c1c(=O)n(Cc1nc(C)c3ccccc3n1)c(=O)n2C` [linagliptin], the “aGLP-1 levels in the portal vein vs vehicle” value in data set [1] (monotherapy (RDX8940 30 mg/kg b.i.d.; linagliptin 10 mg/kg q.d.)) is “did not significantly affect”. Moreover, in data set [1] (monotherapy), the “Systemic concentrations of aGLP-1 vs vehicle” value is listed as “did not significantly increase”. For the same molecule, the “4-h fasted plasma insulin vs vehicle” value in data set [2] (day 29, agent alone) is “lowered”. Moreover, the “4-h fasted plasma glucose vs vehicle” value in data set [2] was “lowered”.

Regarding INT-777, the “Gallbladder emptying (gallbladder weight, egg yolk vs saline)” value in the data set with gallbladder emptying is listed as “inhibition of gallbladder emptying”.

As for teduglutide, in the data set on C57BL/6 mice fed HFCD, the “Hepatic total cholesterol content vs vehicle” value is “significantly decreased”, the “Hepatic triglyceride content vs vehicle” value is “significantly decreased”, the “Hepatic weight vs vehicle” value is listed as “significantly decreased” and the “Plasma ALT levels vs vehicle” value is on record as “significantly decreased”. Moreover, in the data set with C57BL/6 mice fed HFCD, the “Plasma AP levels vs vehicle” value is reported as “significantly decreased”, the “Plasma AST levels vs vehicle” value was “significantly decreased”, the Plasma glucose was 205 ± 5 mg/dL and the “Plasma total bilirubin levels” value was “Neither liraglutide nor teduglutide significantly affected”. In the data set with C57BL/6 mice fed HFCD, this molecule yielded a Plasma total cholesterol of 279 ± 16 mg/dL, a Plasma triglycerides of 84 ± 1 mg/dL, a Body weight of 37.9 ± 0.9 g and a Plasma insulin of 0.95 ± 0.20 ng/mL. In addition, the “HFCD-increased hepatic expression of genes involved in inflammation and fibrotic processes” value in the data set on C57BL/6 mice fed HFCD is “abrogated this effect in many cases”. In the data set on C57BL/6 mice fed HFCD (median), the Fibrosis score is on record as 2, the Macrovesicular steatosis score was 2.00 ^* and the Microvesicular steatosis score is on record as 2.0.

In the case of `CC(CCc1ccccc1)NCC(O)c1ccc(O)c(C(N)=O)c1` (stereo not shown) [Labetalol], in data set [3], the Papp A→B at 10 µM amounted to 19.4 ×10⁻⁶ cm/s and the Papp B→A at 10 µM was found to be 31.6 ×10⁻⁶ cm/s. Besides, in data set [3] (A→B), the recovery was 64%. This molecule also registered a recovery in data set [3] (B→A) of 80%.

As for `CNC(=C[N+](=O)[O-])NCCSCc1ccc(CN(C)C)o1` [Ranitidine], in data set [3], the Papp A→B at 10 µM was 0.91 ×10⁻⁶ cm/s, the Papp B→A at 10 µM was 3.02 ×10⁻⁶ cm/s and the efflux ratio at 10 µM is 3.34. The recovery in data set [3] (A→B) came out at 78%. In data set [3] (B→A), this molecule came in with a recovery of 87%.

Consider `CC(C)NCC(O)COc1cccc2ccccc12` (stereo not shown) [Propranolol], for which, in the data set on MDCK cell monolayers (10 μM, without verapamil), the “Papp A→B” value came out at 14.19 cm/s × 10^−6 and the “Papp B→A” value was 7.03 cm/s × 10^−6. For the same molecule, in the data set with MDCK cell monolayers (+ verapamil 100 μM), the “Recovery, B→A” value is 98%. In the data set with Caco-2 cell monolayers (Caco-2), the “Recovery, A→B” value was found to be 56% and the “Recovery, B→A” value was 78%. In addition, in the data set with Caco-2 cell monolayers (Caco-2, 10 μM), the “Papp A→B” value is on record as 67.06 cm/s × 10^−6 and the “Papp B→A” value is 19.62 cm/s × 10^−6.

Turning to liraglutide, the “4-h fasted plasma insulin vs vehicle” value in data set [2] (day 29, agent alone) is reported as “lowered”. In addition, the Hepatic triglyceride levels entry in data set [2] (day 29, agent alone, RDX8940 P < 0.001) is on record as “reduced”. Besides, the Hepatic cholesterol levels result in data set [2] (day 29, agent alone, RDX8940 P < 0.01) is “reduced”. In addition, in data set [2] (day 29, agent alone, RDX8940 P < 0.05), the Liver weight entry is “reduced”. The “4-h fasted plasma glucose vs vehicle” value in data set [2] is given as “lowered”. In the data set on C57BL/6 mice fed HFCD, the “Hepatic total cholesterol content vs vehicle” value was “significantly decreased”, the “Hepatic triglyceride content vs vehicle” value is recorded as “significantly decreased”, the “Hepatic weight vs vehicle” value is on record as “significantly decreased” and the “Plasma ALT levels vs vehicle” value was “significantly decreased”. In the data set on C57BL/6 mice fed HFCD, the “Plasma AP levels vs vehicle” value was “significantly decreased”, the “Plasma AST levels vs vehicle” value was “significantly decreased”, the Plasma glucose turned out to be 185 ± 13 mg/dL and the “Plasma total bilirubin levels” value was “Neither liraglutide nor teduglutide significantly affected”. Besides, in the data set with C57BL/6 mice fed HFCD, the Plasma total cholesterol was 230 ± 16 mg/dL, the Plasma triglycerides amounted to 59 ± 3 mg/dL, the Body weight was found to be 31.4 ± 0.8 g and the Plasma insulin came out at 0.40 ± 0.11 ng/mL. Further, in the data set with C57BL/6 mice fed HFCD, the “HFCD-increased hepatic expression of genes involved in inflammation and fibrotic processes” value is reported as “abrogated this effect in many cases”. In the data set with C57BL/6 mice fed HFCD (median), the Fibrosis score stood at 2 and the Microvesicular steatosis score was 0.5 ^****.

Turning to `COc1cc2c(c(OC)c1OC)-c1ccc(OC)c(=O)cc1[C@@H](NC(C)=O)CC2` [Colchicine], the Papp A→B at 10 µM in the data set on P-gp was determined as 0.85 ×10⁻⁶ cm/s; in data set [3], 0.23 ×10⁻⁶ cm/s. For the same molecule, the Papp B→A at 10 µM amounted to 2.31 ×10⁻⁶ cm/s in the data set on P-gp and 6.18 ×10⁻⁶ cm/s in data set [3]. The efflux ratio at 10 µM was 2.72 in the data set with P-gp and 27.4 in data set [3]. The recovery in the data set on P-gp (A→B) is 120%; with P-gp (B→A) it was 113%; in data set [3] (A→B), 69%; in data set [3] (B→A), 80%.
